{
  "source": "patent US8912202B2",
  "about": "“N-(benzimimdazol-2-yl)-cyclopropane carboxamides as lysophosphatidic acid antagonists” (Merck Patent GmbH, priority 2011, dated 2014)",
  "note": "pIC50: −log10 of the molar value.",
  "data": [
    {"target": "T1, LPA2R (Homo sapiens, UniProt Q9HBW0)", "T1 construct": "expressed in transfected cells; host or cells: U2OS", "T1 sequence (Q9HBW0 whole entry)": "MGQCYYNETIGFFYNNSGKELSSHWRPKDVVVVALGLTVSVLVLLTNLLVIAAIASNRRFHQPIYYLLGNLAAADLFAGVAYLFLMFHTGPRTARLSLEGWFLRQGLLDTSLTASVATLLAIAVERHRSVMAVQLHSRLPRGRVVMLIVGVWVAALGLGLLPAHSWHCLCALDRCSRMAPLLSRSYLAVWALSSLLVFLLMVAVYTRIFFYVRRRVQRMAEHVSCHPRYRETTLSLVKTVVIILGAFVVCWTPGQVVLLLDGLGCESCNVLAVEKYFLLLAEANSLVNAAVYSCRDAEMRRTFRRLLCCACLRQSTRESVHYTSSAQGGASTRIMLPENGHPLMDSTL", "assay": "LPA2R-Calciumflux assay (FLIPR, intracellular calcium mobilisation after LPA)", "type": "cell-based", "conditions": "U2OS cells recombinant expressing LPA2R; antagonism of LPA-induced calcium flux; racemate of the two trans enantiomers unless marked enantiomer", "text": "The assay detects intra cellular calcium which is generated by cells upon activation of the LPA2 receptor by its ligand LPA. This transient calcium mobilization can be monitored using a commercial calcium detection kit (e.g. from Molecular Devices). The main component of such a kit is a dye, which becomes fluorescent when calcium is present—a transient fluorescence signal after addition of a ligand to a test well are the result. Readers like the FLIPR (Molecular Devices) can be used to monitor such transient “Ca-flux” signals.\nThe signals are calculated according to peak maximum minus base line.\nCompounds which are antagonists of LPA lead to a decreased mobilisation of intracellular calcium and thus to a lower signal. The assay is performed in microplates (384 wells per plate).\nLPA2R-Calciumflux Assay Protocol\nThe assay is run according to the following procedure:\n50 uL seed cells (10000 cells/well in DMEM buffer)\n• Incubate 24 h at 37° C., 10% CO2 • aspirate medium 50 uL add calcium dye 1×HBSS/HEPES buffer • incubate 1 h at 37° C. (“loading”) • equilibrate 10 min at RT 5 uL add compounds in HEPES buffer • shake 10 sec. at 1000 rpm • incubate 15 min at RT 20 uL add LPA (in the FLIPR Tetra) in Krebs-buffer/BSA & measurement\nThe cells are seeded in DMEM buffer (DMEM, 10% FCS, 10 mM HEPES, 1% Pen/Strep).\nDye loading is done in HBSS/HEPES buffer (100 mL 10×HBSS+20 mL 1M HEPES+880 mL water, pH 7.4)\nThe LPA is added in Krebs/BSA buffer (120 mM NaCl, 5 mM KCl, 0.62 mM MgSO4, 1.8 mM CaCl2, 10 mM HEPES, 6 mM D(+)-Glucose, 0.2% BSA, pH 7.4).\nThe compounds are pre-diluted in HEPES buffer (20 mM, pH 7.4), whereby the final DMSO content in the assay is kept at 1%. The compounds are pre-diluted in order to generate dose response series on the microplates. The dose response series consist of 10 concentrations for each compound from 30 uM final to 1 nM final. From all compound wells the resulting signals are referred to control wells (located on each plate besides the compound wells) in terms of % activity.\nFrom these % activity values—along with the corresponding compound concentrations—IC50 values are fitted for each compound using standard fitting programs such as Graphpad Prism. Here the method “log(inhibitor) vs. response—Variable slope” is used.", "values": [
      {"smiles": "O=C(Nc1nc2ccc(Cl)cc2[nH]1)C1CC1c1ccccc1Cl", "note": "(single isomer, unassigned; enantiomer-2) [enantiomer-2-(2-Chloro-phenyl)-cyclopropane-carboxylic acid (6-chloro-1H-benzoimidazol-2-yl)-amide]", "pIC50": "6.00 to 7.00"},
      {"smiles": "O=C(Nc1nc2ccnc(Cl)c2[nH]1)C1CC1c1ccccc1", "note": "(single isomer, unassigned; enantiomer-2) [enantiomer-2-Phenyl-cyclopropane-carboxylic acid (4-chloro-3H-imidazo[4,5-c]pyridin-2-yl)-amide]", "pIC50": "7.00 to 8.00"},
      {"smiles": "O=C(Nc1nc2cc(Cl)cnc2[nH]1)C1CC1c1ccccc1", "note": "(single isomer, unassigned; enantiomer-2) [enantiomer-2-Phenyl-cyclopropane-carboxylic acid (6-chloro-3H-imidazo[4,5-b]pyridin-2-yl)-amide]", "pIC50": "> 8.00"},
      {"smiles": "O=C(Nc1nc2c(OCCN3CCCC3)cccc2[nH]1)C1CC1c1ccccc1", "note": "(single isomer, unassigned; enantiomer-2) [enantiomer-2-Phenyl-cyclopropane-carboxylic acid [4-(2-pyrrolidin-1-yl-ethoxy)-1H-benzoimidazol-2-yl]-amide]", "pIC50": "6.00 to 7.00"},
      {"smiles": "O=C(Nc1nc2cc(OCCN3CCCC3)ccc2[nH]1)C1CC1c1ccccc1", "note": "(single isomer, unassigned; enantiomer-2) [enantiomer-2-Phenyl-cyclopropane-carboxylic acid [5-(2-pyrrolidin-1-yl-ethoxy)-1H-benzoimidazol-2-yl]-amide]", "pIC50": "5.00 to 6.00"},
      {"smiles": "COC(=O)c1cccc2nc(NC(=O)C3CC3c3ccccc3Cl)[nH]c12", "note": "(single isomer, unassigned; enantiomer-2) [enantiomer-2-{[2-(2-Chloro-phenyl)-cyclopropane-carbonyl]-amino}-3H-benzoimidazole-4-carboxylic acid methyl ester]", "pIC50": "< 5.00"},
      {"smiles": "O=C(Nc1nc2cc(Br)cnc2[nH]1)[C@H]1C[C@@H]1c1ccccc1", "note": "[(1S,2S)-2-Phenyl-cyclopropanecarboxylic acid (6-bromo-3H-imidazo[4,5-b]pyridin-2-yl)-amide]", "pIC50": "7.00 to 8.00"}
    ]}
  ]
}
